In article PMC10098953, “Genome Mining Enabled by Biosynthetic Characterization Uncovers a Class of Benzoxazolinate‐Containing Natural Products in Diverse Bacteria” (Angewandte Chemie (International Ed. in English), 2022):

System: T1, PbzB
T1 construct: recombinant, His-SUMO-tag, expressed in and purified from E. coli BL21(DE3); homodimer (apo crystal structure)
Assay: steady-state kinetics of 2-hydroxymethylserine formation (LC-MS)
Type: biochemical, Pseudomonas chlororaphis subsp. piscium
Settings: cofactors PLP and 5,10-methylenetetrahydrofolate (mTHF); potassium phosphate buffer pH 7.5 (stated for the glycine assay; same condition for serine)

Row | Compound | Km [µM]
1 | N[C@H](CO)C(=O)O [D-serine] | 603 ± 56.7
2 | N[C@@H](CO)C(=O)O [L-serine] | 69.52 ± 0.03
